The record followed here is patent US20130310374A1, “Substituted Imidazoquinoline Derivatives” (PIRAMAL ENTERPRISES LIMITED`, priority 2010, published 2013).

Test [1] has as its system A2780. Kind of test: Cytotoxicity propidium iodide assay, A2780. The test is classed as cell-based. The conditions noted are these: for IC50 / inhibition at 1 µM / inhibition at 10 µM: Homo sapiens; for IC50: A2780 (ovarian), 48 hours treatment, read-out: IC50 Values in μM, C1a; for inhibition at 1 µM: read-out: % Inhibition at 1 μM, C1a; for inhibition at 10 µM: A2780, 10 μM (stated in cell), read-out: % Inhibition at 10 μM, C1a. The method, then: (§1) The assay was designed as in the reference, Anticancer Drugs, 2002, 13, 1-8, the disclosure of which is incorporated herein by reference for the teaching of the assay.
(§2) Cells from cell lines (ATCC) as mentioned in the table given below were seeded at a density of 3000 cells/well in a white opaque 96-well plate. Following incubation at 37° C./5% CO2 for a period of 18-24 hours, the cells were treated with various concentrations (stock solution was prepared in DMSO and subsequent dilutions were made in media as per ATCC guidelines) of the compounds of the present invention for a period of 48 hours. At the end of treatment, the culture medium was discarded, the cells were washed with 1×PBS and 200 μL of […] propidium iodide was added to each well. The plates were frozen at 70° C. overnight. For analysis, the plates were warmed to RT, allowed to thaw and were read in PoleStar fluorimeter with the fluorescence setting. The percentage of viable cells in the non-treated set of wells was considered to be 100 and the percentage viability following treatment was calculated accordingly. IC50 values were calculated from graphs plotted using these percentages. IC50 values for certain compounds of present invention are depicted in Table 1 and % Inhibition of certain compounds of present invention are depicted in Table 2.

In test [2] the test system is BT 549. Kind of test: Cytotoxicity propidium iodide assay, BT 549. The test is classed as cell-based. Conditions: Homo sapiens; BT 549 (breast), 48 hours treatment; read-out: IC50 Values in μM, C3c. The procedure: as §1, §2
For test [3], the system named is AsPC 1. Kind of test: Cytotoxicity propidium iodide assay, AsPC 1. The class given is cell-based. Conditions: Homo sapiens, ASPC1; AsPC 1 (pancreatic), 48 hours treatment; read-out: IC50 Values in μM, C4b. The method, then:
as §1
as §2, with “The plates were frozen at 70° C. overnight.” left out

Test [4] concerns MDA MB 231. Kind of test: Cytotoxicity propidium iodide assay, MDA MB 231. The test is classed as cell-based. The conditions noted are these: Homo sapiens; MDA MB 231 (breast), 48 hours treatment; read-out: IC50 Values in μM, C3a. The procedure:
as §1
as §2, with “The plates were frozen at 70° C. overnight.” left out

For test [5], the system named is MCF7. Put plainly: Cytotoxicity propidium iodide assay, MCF7. The class given is cell-based. Conditions: Homo sapiens; MCF7 (breast), 48 hours treatment; read-out: IC50 Values in μM, C3d. The procedure: as §1, §2
For test [6], the system named is PANC 1. Kind of test: Cytotoxicity propidium iodide assay, PANC 1. The class given is cell-based. Conditions: Homo sapiens; PANC 1 (pancreatic), 48 hours treatment; read-out: IC50 Values in μM, C4a. The method, then: as §1, §2
The test system of test [7] is MDA MB 468. Kind of test: Cytotoxicity propidium iodide assay, MDA MB 468. The test is classed as cell-based. Conditions: Homo sapiens; MDA MB 468 (breast), 48 hours treatment; read-out: IC50 Values in μM, C3b. The procedure: as §1, §2
Test [8] has as its system PC3. Put plainly: Cytotoxicity propidium iodide assay, PC3. The class given is cell-based, human. The conditions noted are these: for IC50 / inhibition at 1 µM / inhibition at 10 µM: Homo sapiens, PC-3; for IC50: PC3 (prostate), 48 hours treatment, read-out: IC50 Values in μM, C2a; for inhibition at 1 µM: read-out: % Inhibition at 1 μM, C2a; for inhibition at 10 µM: PC3, 10 μM (stated in cell), read-out: % Inhibition at 10 μM, C2a. The method, then: as §1, §2

For test [9], the system named is BxPC3. Kind of test: Cytotoxicity propidium iodide assay, BxPC3. The class given is cell-based. Conditions: Homo sapiens, BXPC-3; BxPC3 (pancreatic), 48 hours treatment; read-out: IC50 Values in μM, C4c. The method, then: as §1, §2

Bounds are passed on as bounds.

Broadly, the IC50 is the concentration at which inhibition is half-maximal. Regarding `Cn1c(=O)n(-c2ccc(C#N)nc2)c2c3cc(-c4cccnc4)ccc3ncc21` [Example 49, 5-(3-Methyl-2-oxo-8-(pyridin-3-yl)-2,3-dihydro-1H-imidazo[4,5-c]quinolin-1-yl)picolinonitrile], the IC50 in test [1] worked out at 0.009 µM; in test [2], 0.3 µM; in [3] it was 0.025 µM; in [4] it was 0.016 µM; in [5], 0.03 µM; in test [6] it was 0.035 µM. For the same compound, the IC50 in test [7] was 0.065 µM; in test [8] it was 0.017 µM; in test [9] it was 0.04 µM.

Take `Cn1c(=O)n(-c2ccc(C(F)(F)F)nc2)c2c3cc(-c4cnc5ccccc5c4)ccc3ncc21` [Example 54, 3-Methyl-8-(quinolin-3-yl)-1-(6-(trifluoromethyl)pyridin-3-yl)-1H-imidazo[4,5-c]quinolin-2(3H)-one]: the IC50 in test [1] was determined as 0.16 µM; in [2], 1 µM; in test [3], 0.55 µM; in test [4], 0.55 µM; in [5], 0.8 µM; in test [6], 0.95 µM. Moreover, the IC50 in test [7] came out at 1.2 µM; in [8], 0.55 µM; in test [9], 0.78 µM.

Broadly, the inhibition is the change of the read-out against control, counted positive when it falls. On to `Cn1c(=O)n(-c2ccc(C(C)(C)C#N)nc2)c2c3cc(-c4cncc5ccccc45)ccc3ncc21` [Example 6, 2-(5-(8-(Isoquinolin-4-yl)-3-methyl-2-oxo-2,3-dihydro-1H-imidazo[4,5-c]quinolin-1-yl)pyridin-2-yl)-2-methylpropanenitrile], for which the inhibition at 1 µM stood at 85.3% in test [1] (A2780, 1 μM, 48 hours) and 69.5% in test [8] (PC3, 1 μM, 48 hours).

Consider `Cn1c(=O)n(CCN2CCOCC2)c2c3cc(-c4cnc(N)c(C(F)(F)F)c4)ccc3ncc21` [Example 69, 8-(6-Amino-5-(trifluoromethyl)pyridin-3-yl)-3-methyl-1-(2-morpholinoethyl)-1H-imidazo[4,5-c]quinolin-2(3H)-one], for which the IC50 came to 0.022 µM in test [1] and 0.07 µM in [8].

As to `Cn1c(=O)n(CCN2CCOCC2)c2c3cc(-c4cccnc4)ccc3ncc21` [Example 68, 3-Methyl-1-(2-morpholinoethyl)-8-(pyridin-3-yl)-1H-imidazo[4,5-c]quinolin-2(3H)-one], the IC50 in [1] was 1.4 µM; in test [2], more than 10 µM; in test [3], 4.6 µM; in test [4] it was 2.3 µM; in test [5], 3 µM; in test [6] it was 4.6 µM. The IC50 in [7] is 7 µM; in test [8], 2.4 µM; in test [9] it was 2.4 µM.

As for `Cn1c(=O)n(-c2ccc(C#N)nc2)c2c3cc(-c4cccnc4F)ccc3ncc21` [Example 46, 5-(8-(2-Fluoropyridin-3-yl)-3-methyl-2-oxo-2,3-dihydro-1H-imidazo[4,5-c]quinolin-1-yl)picolinonitrile], the inhibition at 1 µM is 34% in test [1] (A2780, 1 μM, 48 hours) and 27% in [8] (PC3, 1 μM, 48 hours).

As to `COc1ccc(-n2c(=O)n(C)c3cnc4ccc(-c5cncc(C(F)(F)F)c5)cc4c32)cn1` [Example 22, 1-(6-Methoxypyridin-3-yl)-3-methyl-8-(5-(trifluoromethyl)pyridin-3-yl)-1H-imidazo[4,5-c] quinolin-2(3H)-one], the inhibition at 1 µM in test [1] (A2780, 1 μM, 48 hours) was 83.1%; in test [8] (PC3, 1 μM, 48 hours) it was 67.8%.

With `COc1ccc(-c2ccc3ncc4c(c3c2)n(-c2ccc(C#N)nc2)c(=O)n4C)cn1` [Example 48, 5-(8-(6-Methoxypyridin-3-yl)-3-methyl-2-oxo-2,3-dihydro-1H-imidazo[4,5-c]quinolin-1-yl)picolinonitrile], the inhibition at 10 µM in test [1] (48 hours) and in test [8] (48 hours) was 40 to 60% each time.

For the compound `CC(C)(C#N)c1ccc(-n2c(=O)n(CC#N)c3cnc4ccc(-c5cccnc5)cc4c32)cn1` [Example 14, 2-(5-(3-(Cyanomethyl)-2-oxo-8-(pyridin-3-yl)-2,3-dihydro-1H-imidazo[4,5-c]quinolin-1-yl)pyridin-2-yl)-2-methylpropanenitrile], the IC50 in test [1] amounted to 0.4 µM; in test [8] it was 0.42 µM.

With `Cn1c(=O)n(-c2ccc(C(F)(F)F)nc2)c2c3cc(-c4ccc(C(F)(F)F)nc4)ccc3ncc21` [Example 56, 3-Methyl-1,8-bis(6-(trifluoromethyl)pyridin-3-yl)-1H-imidazo [4,5-c]quinolin-2(3H)-one], the inhibition at 1 µM turned out to be 57% in test [1] (A2780, 1 μM, 48 hours) and 32% in test [8] (PC3, 1 μM, 48 hours).

In the case of `Cn1c(=O)n(-c2ccc(C#N)nc2)c2c3cc(-c4cnc(N)c(C(F)(F)F)c4)ccc3ncc21` [Example 45, 5-(8-(6-Amino-5-(trifluoromethyl)pyridin-3-yl)-3-methyl-2-oxo-2,3-dihydro-1H-imidazo[4,5-c]quinolin-1-yl)picolinonitrile], the inhibition at 1 µM in test [1] (A2780, 1 μM, 48 hours) worked out at 52%; in test [8] (PC3, 1 μM, 48 hours) it was 37%.

On to `COc1ccc(-n2c(=O)n(C)c3cnc4ccc(-c5cnc(N)c(C(F)(F)F)c5)cc4c32)c(C)n1` [Example 38, 8-(6-Amino-5-(trifluoromethyl)pyridin-3-yl)-1-(6-methoxy-2-methylpyridin-3-yl)-3-methyl-1H-imidazo[4,5-c]quinolin-2(3H)-one], for which the IC50 in test [1] is less than 0.005 µM; in [8] it was 0.0078 µM.

Consider `COc1ccc(-n2c(=O)n(CC#N)c3cnc4ccc(-c5cnc6ccccc6c5)cc4c32)cn1` [Example 24, 2-(1-(6-Methoxypyridin-3-yl)-2-oxo-8-(quinolin-3-yl)-1H-imidazo[4,5-c]quinolin-3(2H)-yl)acetonitrile], for which the inhibition at 1 µM in [1] (A2780, 1 μM, 48 hours) turned out to be 66%; in test [8] (PC3, 1 μM, 48 hours) it was 39%.

For `Cn1c(=O)n(-c2ccc(C#N)nc2)c2c3cc(-c4ccc(F)nc4)ccc3ncc21` [Example 47, 5-(8-(6-Fluoropyridin-3-yl)-3-methyl-2-oxo-2,3-dihydro-1H-imidazo[4,5-c]quinolin-1-yl)picolinonitrile], the inhibition at 10 µM in [1] (48 hours) and in [8] (48 hours) was 40 to 60% throughout.

As for `Cn1c(=O)n(-c2ccc(Cl)nc2)c2c3cc(-c4cccnc4)ccc3ncc21` [Example 60, 1-(6-Chloropyridin-3-yl)-3-methyl-8-(pyridin-3-yl)-1H-imidazo[4,5-c]quinolin-2(3H)-one], the results for the IC50 in test [1] and in test [8] were 0.68 µM and 0.85 µM, respectively.

By % Inhibition is commonly meant the share of the control response that was lost under treatment. A higher % Inhibition goes with a strong effect. For “6-Chloro-5-(3-methyl-2-oxo-8-(quinolin-3-yl)-2,3-dihydro-1H-imidazo[4,5-c]quinolin-1-yl)picolinonitrile [Example 58]”, in test [1] (A2780, 1 μM, 48 hours), the “% Inhibition at 1 μM, C1a” value turned out to be 91%. In test [8] (PC3, 1 μM, 48 hours), the “% Inhibition at 1 μM, C2a” value was 60%.

Take `N#CCn1c(=O)n(-c2ccc(C#N)nc2)c2c3cc(-c4cnc5ccccc5c4)ccc3ncc21` [Example 51, 5-(3-(Cyanomethyl)-2-oxo-8-(quinolin-3-yl)-2,3-dihydro-1H-imidazo[4,5-c]quinolin-1-yl)picolinonitrile]: the inhibition at 1 µM in test [1] (A2780, 1 μM, 48 hours) amounted to 73%; in test [8] (PC3, 1 μM, 48 hours) it was 41%.
